Where “and” joins values, the source holds several entries; their conditions need not be identical. Identical values can stand only once. Toxic doses and inconclusive results are not listed.
Test system: BDF1 mice, P388 leukemia ip, median survival T/C
Experiment: NCI In Vivo Anticancer Drug Screen. Data for tumor model P388 Leukemia (intraperitoneal) in B6D2F1 (BDF1) mice
Conditions: endpoint: median survival time, higher = longer survival
In short: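 Steps: implant the tumour, treat one group with compound and another with vehicle, record survival, then divide treated by control.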

[1] = dose: 100.0 mg/kg/injection, schedule: Q01DX009 (ip), vehicle: saline with Tween-80
[2] = dose: 100.0 mg/kg/injection, schedule: Q04DX003 (ip), vehicle: saline with Tween-80
[3] = dose: 200.0 mg/kg/injection, schedule: Q01DX009 (ip), vehicle: saline with Tween-80
[4] = dose: 200.0 mg/kg/injection, schedule: Q04DX003 (ip), vehicle: saline with Tween-80
[5] = dose: 400.0 mg/kg/injection, schedule: Q01DX009 (ip), vehicle: saline with Tween-80
[6] = dose: 400.0 mg/kg/injection, schedule: Q04DX003 (ip), vehicle: saline with Tween-80
[7] = dose: 12.5 mg/kg/injection, schedule: Q01DX009 (ip), vehicle: Klucel (hydroxypropylcellulose) (HPC)
[8] = dose: 50.0 mg/kg/injection, schedule: Q01DX009 (ip), vehicle: saline with Tween-80

## C=CCSc1ncnc2c1ncn2C1OC(CO)C(O)C1O (stereo not given)
[1]
  T/C: 113 % of control

## CC1CC(C)(C)[N+](C)=C(CC(O)(c2ccccc2)c2ccccc2)O1 (stereo not given)
dose: 6.25 mg/kg/injection, schedule: Q04DX003 (ip), vehicle: saline sonified
  T/C: 109 % of control
dose: 12.5 mg/kg/injection, schedule: Q04DX003 (ip), vehicle: saline sonified
  T/C: 90 % of control
dose: 25.0 mg/kg/injection, schedule: Q04DX003 (ip), vehicle: saline sonified
  T/C: 90 % of control

## CCN(CC)CCOC(=O)c1ccccc1N(c1ccccc1)c1ccccc1
dose: 62.5 mg/kg/injection, schedule: Q01DX009 (ip), vehicle: Klucel (hydroxypropylcellulose) (HPC)
  T/C: 118 % of control
dose: 125.0 mg/kg/injection, schedule: Q01DX009 (ip), vehicle: Klucel (hydroxypropylcellulose) (HPC)
  T/C: 118 % of control

## Cc1ccc(C(=S)NC(=O)NS(C)(=O)=O)cc1
dose: 100.0 mg/kg/injection, schedule: Q01DX001 (ip), vehicle: saline with Tween-80
  T/C: 106 % of control
dose: 200.0 mg/kg/injection, schedule: Q01DX001 (ip), vehicle: saline with Tween-80
  T/C: 105 % of control
dose: 400.0 mg/kg/injection, schedule: Q01DX001 (ip), vehicle: saline with Tween-80
  T/C: 99 % of control

## O=S(=O)(O)c1c(Cl)c(Cl)c(Cl)c(Cl)c1Cl
dose: 50.0 mg/kg/injection, schedule: Q04DX003 (ip), vehicle: suspension in saline
  T/C: 115 % of control
dose: 100.0 mg/kg/injection, schedule: Q04DX003 (ip), vehicle: suspension in saline
  T/C: 116 % of control
dose: 200.0 mg/kg/injection, schedule: Q04DX003 (ip), vehicle: suspension in saline
  T/C: 114 % of control

## CCOC(=O)C1C2OC(=O)C(C(=O)C2N=Nc2ccc(-c3ccc(N=NC4C(=O)C5C(=O)OC4C(C(=O)OCC)C5C4CC=CCC4)cc3)cc2)C1C1CC=CCC1 (stereo not given)
[1]
  T/C: 109 % of control
[2]
  T/C: 110 % of control
[3]
  T/C: 100 % of control
[4]
  T/C: 105 % of control
[5]
  T/C: 109 % of control
[6]
  T/C: 115 % of control

## CC(=O)[O][Hg][c]1cc(-c2ccc(N=Nc3c(S(=O)(=O)O)cc4cccc(N)c4c3O)cc2)ccc1N=Nc1c(S(=O)(=O)O)cc2cccc(N)c2c1O
dose: 1.5 mg/kg/injection, schedule: Q01DX009 (ip), vehicle: saline with Tween-80
  T/C: 100 % of control
dose: 3.0 mg/kg/injection, schedule: Q01DX009 (ip), vehicle: saline with Tween-80
  T/C: 100 % of control
dose: 6.0 mg/kg/injection, schedule: Q01DX009 (ip), vehicle: saline with Tween-80
  T/C: 95 % of control

## CCN(CC)CCCC(C)Nc1cc(C)nc2cc(N(C)C)ccc12 (stereo not given)
dose: 6.25 mg/kg/injection, schedule: Q01DX009 (ip), vehicle: Klucel (hydroxypropylcellulose) (HPC)
  T/C: 117 % of control
[7]
  T/C: 108 % of control

## CCC(CO)NC(=O)/C=C/c1ccc(Cl)cc1 (stereo not given)
[3]
  T/C: 91 % of control

## CC(C)(C)CC(Cl)Cl
dose: 75.0 mg/kg/injection, schedule: Q01DX009 (ip), vehicle: Klucel (hydroxypropylcellulose) (HPC)
  T/C: 100 % of control
dose: 100.0 mg/kg/injection, schedule: Q04DX003 (ip), vehicle: Klucel (hydroxypropylcellulose) (HPC)
  T/C: 100 % of control
dose: 150.0 mg/kg/injection, schedule: Q01DX009 (ip), vehicle: Klucel (hydroxypropylcellulose) (HPC)
  T/C: 100 % of control
dose: 200.0 mg/kg/injection, schedule: Q04DX003 (ip), vehicle: Klucel (hydroxypropylcellulose) (HPC)
  T/C: 100 % of control
dose: 400.0 mg/kg/injection, schedule: Q04DX003 (ip), vehicle: Klucel (hydroxypropylcellulose) (HPC)
  T/C: 107 % of control

## C[CH2][Sn]([CH2]C)([CH2]C)[NH]S(=O)(=O)c1ccc(C)cc1
dose: 0.39 mg/kg/injection, schedule: Q01DX009 (ip), vehicle: Klucel (hydroxypropylcellulose) (HPC)
  T/C: 100 % of control
dose: 0.78 mg/kg/injection, schedule: Q01DX009 (ip), vehicle: Klucel (hydroxypropylcellulose) (HPC)
  T/C: 115 % of control
dose: 3.12 mg/kg/injection, schedule: Q01DX001 (ip), vehicle: Klucel (hydroxypropylcellulose) (HPC)
  T/C: 100 % of control
dose: 6.25 mg/kg/injection, schedule: Q01DX001 (ip), vehicle: Klucel (hydroxypropylcellulose) (HPC)
  T/C: 90 % of control
dose: 12.5 mg/kg/injection, schedule: Q01DX001 (ip), vehicle: Klucel (hydroxypropylcellulose) (HPC)
  T/C: 90 % of control
dose: 18.0 mg/kg/injection, schedule: Q01DX001 (ip), vehicle: Klucel (hydroxypropylcellulose) (HPC)
  T/C: 104 % of control

## C[n+]1c2cc(N)ccc2cc2ccc(N)cc21
dose: 8.0 mg/kg/injection, schedule: Q01DX009 (ip), vehicle: saline
  T/C: 152 % of control
dose: 12.0 mg/kg/injection, schedule: Q01DX009 (ip), vehicle: saline
  T/C: 167 % of control

## CCCCCCC(=O)/C=C/c1cccc(O)c1
[8]
  T/C: 104 % of control
[1]
  T/C: 104 % of control
[3]
  T/C: 95 % of control

## Cc1ccc(C(C#N)Nc2ccccc2)cc1 (stereo not given)
[1]
  T/C: 100 % of control
[2]
  T/C: 100 % of control
[3]
  T/C: 115 % of control
[4]
  T/C: 100 % of control
[5]
  T/C: 100 % of control
[6]
  T/C: 104 % of control

## CC(C)CC(=O)C1=C(O)C(Nc2ccccc2)=CC(=O)C1=Nc1ccccc1
[2]
  T/C: 106 % of control
[4]
  T/C: 118 % of control
[6]
  T/C: 111 % of control

## Cc1n[nH]c(=O)[nH]c1=O
[7]
  T/C: 100 % of control
dose: 25.0 mg/kg/injection, schedule: Q01DX009 (ip), vehicle: Klucel (hydroxypropylcellulose) (HPC)
  T/C: 109 % of control
dose: 50.0 mg/kg/injection, schedule: Q01DX009 (ip), vehicle: Klucel (hydroxypropylcellulose) (HPC)
  T/C: 100 % of control
dose: 100.0 mg/kg/injection, schedule: Q01DX009 (ip), vehicle: Klucel (hydroxypropylcellulose) (HPC)
  T/C: 91 % of control

## CCCCNP(=O)(N1CC1)N1CC1
dose: 8.0 mg/kg/injection, schedule: Q04DX003 (ip), vehicle: saline with Tween-80
  T/C: 116 % of control
dose: 8.25 mg/kg/injection, schedule: Q04DX003 (ip), vehicle: saline with Tween-80
  T/C: 154 % of control
dose: 12.0 mg/kg/injection, schedule: Q04DX003 (ip), vehicle: saline with Tween-80
  T/C: 100 % of control
dose: 12.5 mg/kg/injection, schedule: Q04DX003 (ip), vehicle: saline with Tween-80
  T/C: 190 % of control
dose: 18.75 mg/kg/injection, schedule: Q04DX003 (ip), vehicle: saline with Tween-80
  T/C: 218 % of control

## O=c1[nH]cn[nH]1
dose: 100.0 mg/kg/injection, schedule: Q01DX001 (ip), vehicle: saline sonified
  T/C: 122 % of control
dose: 200.0 mg/kg/injection, schedule: Q01DX001 (ip), vehicle: saline sonified
  T/C: 95 % of control
dose: 400.0 mg/kg/injection, schedule: Q01DX001 (ip), vehicle: saline sonified
  T/C: 90 % of control

## COc1cc(/C=C(/C)[N+](=O)[O-])cc(Br)c1OC
[2]
  T/C: 117 % of control

## CC(C(O)c1cccs1)C(O)(C(F)(F)F)C(F)(F)F (stereo not given)
[2]
  T/C: 90 % of control
[4]
  T/C: 109 % of control

## CN(C)N=Nc1cn(C2OC(CO)C(O)C2O)c(=O)[nH]c1=O (stereo not given)
dose: 9.0 mg/kg/injection, schedule: Q01DX009 (ip), vehicle: saline
  T/C: 115 % of control
dose: 18.0 mg/kg/injection, schedule: Q01DX009 (ip), vehicle: saline
  T/C: 110 % of control
dose: 25.0 mg/kg/injection, schedule: Q01DX009 (ip), vehicle: saline
  T/C: 100 % of control
dose: 37.5 mg/kg/injection, schedule: Q01DX009 (ip), vehicle: saline
  T/C: 300 % of control and 120 % of control
dose: 50.0 mg/kg/injection, schedule: Q01DX009 (ip), vehicle: saline
  T/C: 120 % of control
dose: 75.0 mg/kg/injection, schedule: Q01DX009 (ip), vehicle: saline
  T/C: 300 % of control and 150 % of control
dose: 150.0 mg/kg/injection, schedule: Q01DX009 (ip), vehicle: saline
  T/C: 300 % of control and 180 % of control
dose: 400.0 mg/kg/injection, schedule: Q01DX009 (ip), vehicle: saline
  T/C: 150 % of control

## C=CCN(CC=C)CCSC(=S)NCCOC
[8]
  T/C: 95 % of control
[1]
  T/C: 100 % of control
[3]
  T/C: 95 % of control

## CCCCCCCCC(CO)CO
[8]
  T/C: 100 % of control
[1]
  T/C: 92 % of control
[3]
  T/C: 95 % of control

## CN(C)c1ccc(/C=C/c2ccnc3c(O)ccc(O)c23)cc1
[8]
  T/C: 112 % of control
[1]
  T/C: 124 % of control
